One experiment deals with U87MG cells. Description: Cellular assay: inhibition of 2-HG production in U87MG cells (LC-MS, 48 hours). It counts as cell-based. Conditions: Homo sapiens, U-87 MG, 2-HG in media by LC-MS. In outline:
(§1)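 HT1080 or U87MG cells (5000/well, DMEM + 10% FBS) seeded overnight, then exposed to compound (0.2% DMSO final) for 48 h; medium 2-HG measured by LC-MS. Viability read by CellTiter-Glo luminescence at 72 h.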

For another experiment, the target named is IDH1 R132H (Homo sapiens, UniProt O75874, R132H). Briefly: In vitro assay for IDH1 R132H inhibitors (NADPH/aKG, resazurin detection). The format is biochemical. Conditions: Table 4B; 0.2 μg/ml IDH1 R132H, 50 minutes at room temperature; read-out: IC50, IDH1 R132H Inhibition. In outline: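 Buffer: 150 mM NaCl, 10 mM MgCl2, 20 mM Tris pH 7.5, 0.03% BSA. Compound was added to substrate mix (8 uM NADPH, 2 mM aKG), then enzyme mix (0.2 μg/ml IDH1 R132H), and incubated 50 min at room temperature. Remaining NADPH was read by resazurin (30 μM in detection mix) to resorufin fluorescence after 5 min, Ex544/Em590.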
In general terms: Resazurin is reduced to fluorescent resorufin, in cell work by metabolically active cells.

For another experiment, the system named is HT1080 cells. Description: Cellular assay: inhibition of 2-HG production in HT1080 cells (LC-MS, 48 hours). The format is cell-based. Particulars: Homo sapiens, HT-1080, 2-HG in media by LC-MS. Put shortly: as §1

The results in this text go back to US20130184222A1, “[…] ACTIVE COMPOSITIONS AND THEIR METHODS OF USE” (AGIOS PHARMACEUTICALS, INC, priority 2010, published 2013).

Molecules are shown by their SMILES.

One may read the IC50 as the point on the concentration scale where inhibition reaches its midpoint.

Sequence of IDH1 R132H (O75874 whole entry R132H): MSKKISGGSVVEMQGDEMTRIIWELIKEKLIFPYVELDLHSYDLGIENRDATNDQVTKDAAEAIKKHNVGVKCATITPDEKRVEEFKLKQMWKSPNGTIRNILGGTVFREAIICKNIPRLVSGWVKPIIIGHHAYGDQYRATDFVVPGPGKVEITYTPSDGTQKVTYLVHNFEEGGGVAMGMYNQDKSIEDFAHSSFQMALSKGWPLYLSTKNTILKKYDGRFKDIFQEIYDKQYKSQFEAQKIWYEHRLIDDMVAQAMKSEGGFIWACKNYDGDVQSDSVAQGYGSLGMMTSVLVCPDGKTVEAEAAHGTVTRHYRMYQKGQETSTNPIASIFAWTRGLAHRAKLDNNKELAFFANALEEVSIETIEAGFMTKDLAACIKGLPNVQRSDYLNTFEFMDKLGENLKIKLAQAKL

With `Cc1ccccc1C(C(=O)NC1CCCCC1)N(C(=O)Cn1ccc2ccccc21)c1cccc(F)c1` (stereo not drawn) [Compound 271], the figures for the half-maximal inhibitory concentration (IC50) in the experiment on U87MG cells, on IDH1 R132H and in the experiment on HT1080 cells were 250 to 1000 nM, ≤ 100 nM and ≤ 250 nM, respectively.

As to `Cc1ccccc1C(C(=O)NC1CCCCC1)N(C(=O)CNc1cccnc1F)c1cccc(F)c1` (stereo not drawn) [Compound 272], the IC50 with U87MG cells was ≤ 250 nM; at IDH1 R132H it was ≤ 100 nM; in the experiment on HT1080 cells, ≤ 250 nM.

As to `Cc1ccccc1C(C(=O)NC1CCCCC1)N(C(=O)COc1cccnn1)c1cccc(F)c1` (stereo not drawn) [Compound 273], the IC50 in the experiment on U87MG cells lay in the range of 250 to 1000 nM; at IDH1 R132H, 100 to 1000 nM; in the experiment with HT1080 cells it was 250 to 1000 nM.

For `Cc1ccccc1C(C(=O)NC1CCCCC1)N(C(=O)Cc1c[nH]c2cccnc12)c1cccc(F)c1` (stereo not drawn) [Compound 275], the IC50 with U87MG cells is 250 to 1000 nM; at IDH1 R132H it was ≤ 100 nM; in the experiment with HT1080 cells, ≤ 250 nM.

Consider `Cc1ccccc1C(C(=O)NC1CCCCC1)N(C(=O)Cc1c[nH]c2cnccc12)c1cccc(F)c1` (stereo not drawn) [Compound 276], for which the IC50 in the experiment with U87MG cells was ≤ 250 nM; at IDH1 R132H it was ≤ 100 nM; with HT1080 cells, ≤ 250 nM.

`Cc1ccccc1C(C(=O)NC1CCCCC1)N(C(=O)CNc1ccccc1C#N)c1cccc(F)c1` (stereo not drawn) [Compound 278]: the IC50 in the experiment on U87MG cells is ≤ 250 nM; at IDH1 R132H, 100 to 1000 nM; in the experiment on HT1080 cells, ≤ 250 nM.

For the compound `Cc1ccccc1C(C(=O)NC1CCCCC1)N(C(=O)CNc1ccc(C(F)(F)F)nc1)c1cccc(F)c1` (stereo not drawn) [Compound 279], the 50% inhibitory concentration (IC50) with U87MG cells was > 5000 nM; at IDH1 R132H, 100 to 1000 nM; with HT1080 cells it was 1000 to 5000 nM.

As for `Cc1ccccc1C(C(=O)NC1CCCCC1)N(C(=O)CNc1ccnc(F)c1)c1cccc(F)c1` (stereo not drawn) [Compound 280], the IC50 in the experiment with U87MG cells fell in the range of 1000 to 5000 nM; on IDH1 R132H, 100 to 1000 nM; with HT1080 cells, 1000 to 5000 nM.

On to `Cc1ccccc1C(C(=O)NC1CCCCC1)N(C(=O)COCc1ccccn1)c1cccc(F)c1` (stereo not drawn) [Compound 281], for which the IC50 in the experiment on U87MG cells is 250 to 1000 nM; on IDH1 R132H, 100 to 1000 nM; in the experiment on HT1080 cells, ≤ 250 nM.

On to `Cc1ccccc1C(C(=O)NC1CCCCC1)N(C(=O)COCc1cnccn1)c1cccc(F)c1` (stereo not drawn) [Compound 282], for which the half-inhibitory concentration (IC50) is > 5000 nM in the experiment with U87MG cells, 100 to 1000 nM on IDH1 R132H and 250 to 1000 nM with HT1080 cells.

In the case of `Cc1ccccc1C(C(=O)NC1CCCCC1)N(C(=O)C(C)c1c[nH]c2ccccc12)c1cccc(F)c1` (stereo not drawn) [Compound 283], the values for the half-maximal inhibitory concentration (IC50) with U87MG cells, on IDH1 R132H and in the experiment with HT1080 cells were 250 to 1000 nM, 100 to 1000 nM and 250 to 1000 nM, respectively.

As for `Cc1ccccc1C(C(=O)NC1CCCCC1)N(C(=O)C(=O)c1nccn1C)c1cccc(F)c1` (stereo not drawn) [Compound 284], the results for the concentration for half-maximal inhibition (IC50) in the experiment with U87MG cells, at IDH1 R132H and with HT1080 cells were 1000 to 5000 nM, 100 to 1000 nM and 250 to 1000 nM, respectively.

Turning to `Cc1ccccc1C(C(=O)NC1CCCCC1)N(C(=O)Cn1ccnc1C)c1cccc(-c2ccccc2)c1` (stereo not drawn) [Compound 286], the results for the IC50 with U87MG cells, at IDH1 R132H and in the experiment on HT1080 cells were ≤ 250 nM, 100 to 1000 nM and 250 to 1000 nM, respectively.

`Cc1ccccc1C(C(=O)NC1CCCCC1)N(C(=O)CNc1cc(F)ccn1)c1cccc(F)c1` (stereo not drawn) [Compound 287]: the IC50 was ≤ 250 nM in the experiment on U87MG cells, ≤ 100 nM at IDH1 R132H and ≤ 250 nM in the experiment with HT1080 cells.

For `Cc1ccccc1C(C(=O)NC1CCCCC1)N(C(=O)Cc1cccnc1)c1cccc(F)c1` (stereo not drawn) [Compound 288], the IC50 in the experiment on U87MG cells was 1000 to 5000 nM; on IDH1 R132H, ≤ 100 nM; with HT1080 cells, 250 to 1000 nM.

For the compound `Cc1ccccc1C(C(=O)NC1CCCCC1)N(C(=O)Cc1n[nH]c2ccccc12)c1cccc(F)c1` (stereo not drawn) [Compound 289], the results for the IC50 in the experiment with U87MG cells, at IDH1 R132H and in the experiment with HT1080 cells were ≤ 250 nM, ≤ 100 nM and ≤ 250 nM, respectively.

With `Cc1ccccc1C(C(=O)NC1CCCCC1)N(C(=O)CNc1ccc(-c2nnco2)cc1)c1cccc(F)c1` (stereo not drawn) [Compound 290], the figures for the IC50 in the experiment on U87MG cells, at IDH1 R132H and with HT1080 cells were 250 to 1000 nM, ≤ 100 nM and ≤ 250 nM, respectively.

On to `Cc1ccccc1C(C(=O)NC1CCCCC1)N(C(=O)CNc1ccc(-c2ncon2)cc1)c1cccc(F)c1` (stereo not drawn) [Compound 291], for which the results for the half-maximal inhibitory concentration (IC50) in the experiment with U87MG cells, on IDH1 R132H and in the experiment on HT1080 cells were 250 to 1000 nM, ≤ 100 nM and ≤ 250 nM, respectively.

`Cc1ccccc1C(C(=O)NC1CCCCC1)N(C(=O)Cn1ccnc1C)c1cccc(-c2cccc(OC(F)(F)F)c2)c1` (stereo not drawn) [Compound 292]: the IC50 fell in the range of 1000 to 5000 nM in the experiment with U87MG cells, 100 to 1000 nM on IDH1 R132H and 1000 to 5000 nM in the experiment with HT1080 cells.

As to `COC(=O)N1CCCCC1C(=O)N(c1cccc(F)c1)C(C(=O)NC1CCCCC1)c1ccccc1C` (stereo not drawn) [Compound 293], the figures for the IC50 in the experiment on U87MG cells, on IDH1 R132H and in the experiment with HT1080 cells were ≤ 250 nM, ≤ 100 nM and 250 to 1000 nM, respectively.

As for `Cc1ccccc1C(C(=O)NC1CCCCC1)N(C(=O)Cn1cncn1)c1cccc(F)c1` (stereo not drawn) [Compound 294], the IC50 lay in the range of 250 to 1000 nM with U87MG cells, 100 to 1000 nM on IDH1 R132H and 1000 to 5000 nM in the experiment on HT1080 cells.

Turning to `Cc1nccn1CC(=O)N(c1cccc(F)c1)C(C(=O)NC1CCCCC1)c1ccccc1` (stereo not drawn) [Compound 295], the IC50 is ≤ 250 nM with U87MG cells, 100 to 1000 nM on IDH1 R132H and 1000 to 5000 nM with HT1080 cells.

Regarding `O=C(NC1CCCCC1)C(c1ccccc1)N(C(=O)Cn1ccnc1)c1cccc(F)c1` (stereo not drawn) [Compound 296], the concentration for half-maximal inhibition (IC50) is ≤ 250 nM in the experiment with U87MG cells, 100 to 1000 nM at IDH1 R132H and 1000 to 5000 nM with HT1080 cells.

Consider `Cc1ccccc1C(C(=O)NC1CCCCC1)N(C(=O)Cc1ccc2[nH]ccc2c1)c1cccc(F)c1` (stereo not drawn) [Compound 297], for which the IC50 in the experiment on U87MG cells was ≤ 250 nM; on IDH1 R132H it was ≤ 100 nM; with HT1080 cells, 250 to 1000 nM.

On to `Cc1ccn(CC(=O)N(c2cccc(F)c2)C(C(=O)NC2CCCCC2)c2ccccc2C)n1` (stereo not drawn) [Compound 298], for which the IC50 with U87MG cells fell in the range of 1000 to 5000 nM; at IDH1 R132H, 100 to 1000 nM; in the experiment with HT1080 cells it was 250 to 1000 nM.

Turning to `COc1cccc(-c2cccc(N(C(=O)Cn3ccnc3C)C(C(=O)NC3CCCCC3)c3ccccc3C)c2)c1` (stereo not drawn) [Compound 299], the IC50 in the experiment on U87MG cells lay in the range of 250 to 1000 nM; at IDH1 R132H, 100 to 1000 nM; with HT1080 cells, 1000 to 5000 nM.

As for `Cc1ccccc1C(C(=O)NC1CCCCC1)N(C(=O)CNc1ncccc1F)c1cccc(F)c1` (stereo not drawn) [Compound 301], the figures for the half-inhibitory concentration (IC50) in the experiment on U87MG cells, on IDH1 R132H and in the experiment on HT1080 cells were ≤ 250 nM, ≤ 100 nM and ≤ 250 nM, respectively.

As for `Cc1ccccc1C(C(=O)NC1CCCCC1)N(C(=O)CNc1cccc(F)n1)c1cccc(F)c1` (stereo not drawn) [Compound 302], the IC50 with U87MG cells was 250 to 1000 nM; on IDH1 R132H, 100 to 1000 nM; in the experiment with HT1080 cells, ≤ 250 nM.

Take `Cc1ccccc1C(C(=O)NC1CCCCC1)N(C(=O)COc1cc(C(F)(F)F)ccn1)c1cccc(F)c1` (stereo not drawn) [Compound 303]: the IC50 with U87MG cells was 250 to 1000 nM; on IDH1 R132H, 100 to 1000 nM; in the experiment on HT1080 cells, ≤ 250 nM.

Take `Cc1ccccc1C(C(=O)NC1CCCCC1)N(Cc1nccs1)C(=O)Cn1ccnc1` (stereo not drawn) [Compound 304]: the figures for the IC50 in the experiment with U87MG cells, at IDH1 R132H and in the experiment with HT1080 cells were 250 to 1000 nM, 100 to 1000 nM and > 5000 nM, respectively.

As for `Cc1ccccc1C(C(=O)NC1CCCCC1)N(C(=O)Cc1ccccn1)c1cccc(F)c1` (stereo not drawn) [Compound 305], the IC50 in the experiment on U87MG cells was 250 to 1000 nM; at IDH1 R132H it was 100 to 1000 nM; in the experiment with HT1080 cells it was 250 to 1000 nM.

Turning to `COC(=O)N1CCCC1C(=O)N(c1cccc(F)c1)C(C(=O)NC1CCCCC1)c1ccccc1C` (stereo not drawn) [Compound 306], the IC50 in the experiment with U87MG cells was ≤ 250 nM; on IDH1 R132H, ≤ 100 nM; with HT1080 cells it was 250 to 1000 nM.

As for `O=C(NC1CCCCC1)C(c1ccccc1Cl)N(C(=O)Cc1cscn1)c1cccc(F)c1` (stereo not drawn) [Compound 307], the values for the 50% inhibitory concentration (IC50) in the experiment on U87MG cells, at IDH1 R132H and with HT1080 cells were 250 to 1000 nM, ≤ 100 nM and 250 to 1000 nM, respectively.
